The values that follow come from patent publication US7196110B2, “N-substituted tricyclic 3-aminopyrazoles as inhibitors for the treatment of cell proliferative disorders” (Janssen Phamaceutica N.V., priority 2002, dated 2007).

SMILES strings stand for the structures. Like-named read-outs stand apart in the source and are kept apart here.

In the assay the target is T1, PDGF-receptor beta enzyme comprising the tyrosine kinase domain (Homo sapiens, UniProt P09619).
T1 construct: from amino acid 545 to 1106 of GenBank Access NO: AAA36427
T1 sequence (P09619 545-1106): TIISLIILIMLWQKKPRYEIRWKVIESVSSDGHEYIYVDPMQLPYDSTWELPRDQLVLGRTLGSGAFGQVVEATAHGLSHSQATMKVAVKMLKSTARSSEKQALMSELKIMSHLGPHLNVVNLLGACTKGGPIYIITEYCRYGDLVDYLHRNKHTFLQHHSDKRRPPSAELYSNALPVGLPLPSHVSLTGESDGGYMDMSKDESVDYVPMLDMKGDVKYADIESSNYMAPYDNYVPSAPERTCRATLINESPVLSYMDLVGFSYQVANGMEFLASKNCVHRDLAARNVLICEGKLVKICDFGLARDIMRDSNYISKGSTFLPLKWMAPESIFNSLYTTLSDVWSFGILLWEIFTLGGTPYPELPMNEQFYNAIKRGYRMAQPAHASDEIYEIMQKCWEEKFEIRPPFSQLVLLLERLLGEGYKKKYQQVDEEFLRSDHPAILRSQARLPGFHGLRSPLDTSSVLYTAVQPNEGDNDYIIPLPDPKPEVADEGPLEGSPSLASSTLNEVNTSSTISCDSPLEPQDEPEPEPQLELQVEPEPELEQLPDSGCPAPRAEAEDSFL
The assay is described as follows: Inhibition of PDGF-receptor kinase activity (cell-free, PLC1 peptide, 33P Flashplate). The following applies: for inhibition at 10 µM: compound at 10 uM, read-out: Percent Inhibition @ 10 uM. Format: biochemical. A digest of the protocol: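 Recombinant kinase domain (aa 545–1106) phosphorylated a biotinylated PLC1 peptide with 5 μM ATP plus 33P-γ-ATP, in Tris pH 8, MgCl2, Na3VO4 and 1 mM DTT, for 60 min at 30 °C. Retained 33P was counted after washing. IC50 is the concentration halving activity versus no-inhibitor reactions.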

The mark [1] stands for this setting: PDGF-R kinase activity, read-out: IC50.
Setting [2] is: read-out: IC50 (μM) on PDGF-R kinase activity.

For the compound `COc1cc2c(c(Cc3ccccc3)c1O)-c1n[nH]c(Nc3cccc(F)c3)c1C2` [Compound 606, 8-Benzyl-3-(3-fluoro-phenylamino)-6-methoxy-2,4-dihydro-indeno[1,2-c]pyrazol-7-ol], the inhibition at 10 µM (PDGF-R kinase activity) was 53.5%.

Consider `COc1ccc(Nc2[nH]nc3c2Cc2c(C)cccc2-3)c(OC)c1` [Compound 102, (2,4-Dimethoxy-phenyl)-(5-methyl-2,4-dihydro-indeno[1,2-c]pyrazol-3-yl)-amine], for which the inhibition at 10 µM (PDGF-R kinase activity) was 50%. Besides, the concentration for half-maximal inhibition (IC50) under setting [1] came out at 3.4 µM.

Take `COc1ccc(OC)c(CNc2[nH]nc3c2Cc2cc(F)ccc2-3)c1` [Compound 307, (2,5-Dimethoxy-benzyl)-(6-fluoro-2,4-dihydro-indeno[1,2-c]pyrazol-3-yl)-amine]: where the note is “PDGF-R kinase activity”, the inhibition at 10 µM came out at 59%. Further, under setting [1], the half-inhibitory concentration (IC50) is 3.4 µM.

As for `COc1cc2c(cc1OC)-c1c(c(Nc3cccc(F)c3)nn1COC(C)=O)C2` [Compound 496, Acetic acid 3-(3-fluoro-phenylamino)-6,7-dimethoxy-4H-indeno[1,2-c]pyrazol-1-ylmethyl ester], the inhibition at 10 µM (PDGF-R kinase activity) came out at 88.5%. The half-inhibitory concentration (IC50) under setting [1] turned out to be 0.0136 µM.

As for `COc1ccc(Cl)cc1Nc1[nH]nc2c1Cc1cc(OC)c(OC)cc1-2` [Compound 56, (5-Chloro-2-methoxy-phenyl)-(6,7-dimethoxy-2,4-dihydro-indeno[1,2-c]pyrazol-3-yl)-amine], the inhibition at 10 µM (PDGF-R kinase activity) stood at 36%. In addition, under setting [1], the IC50 turned out to be 8.4 µM.

Turning to `COc1cc2c(cc1OC)-c1n[nH]c(Nc3cc(F)ccc3F)c1C2` [Compound 55, (2,5-Difluoro-phenyl)-(6,7-dimethoxy-2,4-dihydro-indeno[1,2-c]pyrazol-3-yl)-amine], where the note is “PDGF-R kinase activity”, the inhibition at 10 µM amounted to 76%. For the same compound, under setting [1], the IC50 was found to be 0.636 µM.

With `CCC1c2cc(OC)c(OC)cc2-c2nn(C(=O)COCc3ccccc3)c(Nc3cccc(Br)c3)c21` (centres unmarked) [Compound 518, 2-Benzyloxy-1-[3-(3-bromo-phenylamino)-4-ethyl-6,7-dimethoxy-4H-indeno[1,2-c]pyrazol-2-yl]-ethanone], for the setting “PDGF-R kinase activity”, the inhibition at 10 µM came to 92.5%. The IC50 under setting [1] came to 0.184 µM.

With `COc1cc2c(cc1OC)-c1n[nH]c(NCc3ccccc3Cl)c1C2` [Compound 230, (2-Chloro-benzyl)-(6,7-dimethoxy-2,4-dihydro-indeno[1,2-c]pyrazol-3-yl)-amine], the inhibition at 10 µM (PDGF-R kinase activity) came out at 90%. The half-inhibitory concentration (IC50) under setting [1] came to 0.0019 µM.

In the case of `COc1cc2c(cc1OC)-c1n[nH]c(Nc3c(F)cc(F)cc3F)c1C2` [Compound 477, (6,7-Dimethoxy-2,4-dihydro-indeno[1,2-c]pyrazol-3-yl)-(2,4,6-trifluoro-phenyl)-amine], for the setting “PDGF-R kinase activity”, the inhibition at 10 µM is 95%. Moreover, the half-inhibitory concentration (IC50) under setting [1] amounted to 0.229 µM.

As to `COc1cc2c(cc1OC)-c1n[nH]c(Nc3cccc(F)c3Br)c1C2` [Compound 410, (2-Bromo-3-fluoro-phenyl)-(6,7-dimethoxy-2,4-dihydro-indeno[1,2-c]pyrazol-3-yl)-amine], the inhibition at 10 µM (PDGF-R kinase activity) is 83.5%. Besides, the concentration for half-maximal inhibition (IC50) under setting [1] is 1.08 µM.

Consider `COc1cc2c(cc1OC)-c1n[nH]c(Nc3cccc(C(=O)NCCOCCOCCOCCNC(=O)CCCCC4SCC5NC(=O)NC54)c3)c1C2` (centres unmarked) [Compound 601, 3-(6,7-Dimethoxy-2,4-dihydro-indeno[1,2-c]pyrazol-3-ylamino)-N-{2-[2-(2-{2-[5-(2-oxo-hexahydro-thieno[3,4-d]imidazol-6-yl)-pentanoylamino]-ethoxy}-ethoxy)-ethoxy]-ethyl}-benzamide], for which the inhibition at 10 µM (PDGF-R kinase activity) came to 89%. Under setting [2], the IC50 was determined as 2.29 µM.

Take `COc1ccc2c(c1)Cc1c-2n[nH]c1Nc1ccccc1` [Compound 7, (6-Methoxy-2,4-dihydro-indeno[1,2-c]pyrazol-3-yl)-phenyl-amine]: where the note is “PDGF-R kinase activity”, the inhibition at 10 µM was found to be 92%. Moreover, the IC50 under setting [1] is 0.217 µM.

With `COc1cc2c(cc1OC)-c1c(c(Nc3cccc(F)c3)nn1C(=O)Oc1ccc(F)cc1)C2` [Compound 500, 3-(3-Fluoro-phenylamino)-6,7-dimethoxy-4H-indeno[1,2-c]pyrazole-1-carboxylic acid 4-fluoro-phenyl ester], the inhibition at 10 µM (PDGF-R kinase activity) is 80.5%. Also, the IC50 under setting [1] worked out at 0.492 µM.

Consider `CCOc1cc2c(cc1OCC)-c1n[nH]c(NCc3cccc(F)c3)c1C2` [Compound 294, (6,7-Diethoxy-2,4-dihydro-indeno[1,2-c]pyrazol-3-yl)-(3-fluoro-benzyl)-amine], for which the inhibition at 10 µM (PDGF-R kinase activity) amounted to 81%. Besides, the 50% inhibitory concentration (IC50) under setting [1] amounted to 0.264 µM.

Turning to `COc1ccc2c(c1)-c1n[nH]c(Nc3cccnc3)c1C2` [Compound 173, (7-Methoxy-2,4-dihydro-indeno[1,2-c]pyrazol-3-yl)-pyridin-3-yl-amine], for the setting “PDGF-R kinase activity”, the inhibition at 10 µM amounted to 87%. For the same compound, the IC50 under setting [1] was 0.215 µM.

Regarding `COc1ccc(OC)c(Nc2[nH]nc3c2Cc2ccc(C)cc2-3)c1` [Compound 184, (2,5-Dimethoxy-phenyl)-(7-methyl-2,4-dihydro-indeno[1,2-c]pyrazol-3-yl)-amine], the inhibition at 10 µM (PDGF-R kinase activity) came to 94%. Under setting [1], the IC50 turned out to be 1.1 µM.

On to `CCCCCCCCCCCCCCCNC(=O)n1nc2c(c1Nc1cccc(F)c1)Cc1cc(OC)c(OC)cc1-2` [Compound 598, 3-(3-Fluoro-phenylamino)-6,7-dimethoxy-4H-indeno[1,2-c]pyrazole-2-carboxylic acid pentadecylamide], for which, under “PDGF-R kinase activity”, the inhibition at 10 µM amounted to 0%. Moreover, the 50% inhibitory concentration (IC50) under setting [2] is 98.4 µM.

`COc1cc2c(cc1OC)-c1n[nH]c(Nc3ccc(S(=O)(=O)C4CCNCC4)cc3)c1C2` [Compound 221, (6,7-Dimethoxy-2,4-dihydro-indeno[1,2-c]pyrazol-3-yl)-[4-(piperidine-4-sulfonyl)-phenyl]-amine]: the inhibition at 10 µM (PDGF-R kinase activity) worked out at 71%. Also, the IC50 under setting [1] was found to be 1.6 µM.

Consider `COc1cc2c(cc1OC)C(C)c1c-2n[nH]c1Nc1ccc(F)cc1` (centres unmarked) [Compound 248, (6,7-Dimethoxy-4-methyl-2,4-dihydro-indeno[1,2-c]pyrazol-3-yl)-(4-fluoro-phenyl)-amine], for which the inhibition at 10 µM (PDGF-R kinase activity) worked out at 68%. For the same compound, under setting [1], the IC50 is 0.41 µM.

As for `COc1cc2c(cc1OC)-c1n[nH]c(NCc3ccc(Cl)c(Cl)c3)c1C2` [Compound 219, (3,4-Dichloro-benzyl)-(6,7-dimethoxy-2,4-dihydro-indeno[1,2-c]pyrazol-3-yl)-amine], where the note is “PDGF-R kinase activity”, the inhibition at 10 µM stood at 39%.

As for `COc1cc2c(cc1OC)-c1n[nH]c(NCc3ccccc3C)c1C2` [Compound 223, (6,7-Dimethoxy-2,4-dihydro-indeno[1,2-c]pyrazol-3-yl)-(2-methyl-benzyl)-amine], for the setting “PDGF-R kinase activity”, the inhibition at 10 µM stood at 97%. Further, the concentration for half-maximal inhibition (IC50) under setting [1] came to 0.0459 µM.

On to `Cc1ccc2c(c1)-c1n[nH]c(Nc3ccc(OC(F)(F)F)cc3)c1C2` [Compound 186, (7-Methyl-2,4-dihydro-indeno[1,2-c]pyrazol-3-yl)-(4-trifluoromethoxy-phenyl)-amine], for which the inhibition at 10 µM (PDGF-R kinase activity) came out at 78%. Further, the IC50 under setting [1] came to 0.414 µM.

As to `CN(C)CCCOc1ccc2c(c1)Cc1c-2n[nH]c1Nc1cccnc1` [Compound 161, [6-(3-Dimethylamino-propoxy)-2,4-dihydro-indeno[1,2-c]pyrazol-3-yl]-pyridin-3-yl-amine], the inhibition at 10 µM (PDGF-R kinase activity) amounted to 84%. Besides, under setting [1], the IC50 stood at 0.382 µM.

For `Clc1cccc(Nc2[nH]nc3c2Cc2c(OCCCN4CCOCC4)cccc2-3)c1` [Compound 392, (3-Chloro-phenyl)-[5-(3-morpholin-4-yl-propoxy)-2,4-dihydro-indeno[1,2-c]pyrazol-3-yl]-amine], the inhibition at 10 µM (PDGF-R kinase activity) was determined as 80%. Further, under setting [1], the concentration for half-maximal inhibition (IC50) was 0.153 µM.

`COc1cc2c(cc1OC)-c1nn(C(=O)Nc3cccc(F)c3)c(Nc3cccc(F)c3)c1C2` [Compound 395, 3-(3-Fluoro-phenylamino)-6,7-dimethoxy-4H-indeno[1,2-c]pyrazole-2-carboxylic acid (3-fluoro-phenyl)-amide]: the inhibition at 10 µM (PDGF-R kinase activity) came to 88%. For the same compound, the half-inhibitory concentration (IC50) under setting [1] is 0.686 µM.

`COc1cc2c(cc1OC)-c1n[nH]c(Nc3ccccn3)c1C2` [Compound 562, (6,7-Dimethoxy-2,4-dihydro-indeno[1,2-c]pyrazol-3-yl)-pyridin-2-yl-amine]: the inhibition at 10 µM (PDGF-R kinase activity) was 93.5%. For the same compound, the IC50 under setting [1] came to 0.084 µM.

For the compound `CCOc1cccc(Nc2[nH]nc3c2Cc2sccc2-3)c1` [Compound 405, (5,7-Dihydro-1-thia-4,5-diaza-cyclopenta[a]pentalen-6-yl)-(3-ethoxy-phenyl)-amine], where the note is “PDGF-R kinase activity”, the inhibition at 10 µM turned out to be 94.5%. Under setting [1], the IC50 amounted to 0.0635 µM.

For `COc1ccc2c(c1)-c1n[nH]c(Nc3cc(F)ccc3F)c1C2` [Compound 176, (2,5-Difluoro-phenyl)-(7-methoxy-2,4-dihydro-indeno[1,2-c]pyrazol-3-yl)-amine], for the setting “PDGF-R kinase activity”, the inhibition at 10 µM stood at 46.5%. Besides, the IC50 under setting [1] was 0.318 µM.

As for `COc1cc2c(cc1OC)-c1n[nH]c(Nc3ccc(F)c(Cl)c3)c1C2` [Compound 53, (3-Chloro-4-fluoro-phenyl)-(6,7-dimethoxy-2,4-dihydro-indeno[1,2-c]pyrazol-3-yl)-amine], for the setting “PDGF-R kinase activity”, the inhibition at 10 µM turned out to be 94%. For the same compound, under setting [1], the 50% inhibitory concentration (IC50) turned out to be 0.0586 µM.

With `COCCCOc1ccc2c(c1)Cc1c-2n[nH]c1Nc1cccc(Cl)c1` [Compound 135, (3-Chloro-phenyl)-[6-(3-methoxy-propoxy)-2,4-dihydro-indeno[1,2-c]pyrazol-3-yl]-amine], the inhibition at 10 µM (PDGF-R kinase activity) turned out to be 87%. Further, under setting [1], the IC50 turned out to be 0.202 µM.

As for `COC(=O)n1nc2c(c1Nc1cccc(F)c1)Cc1cc(OC)c(OC)cc1-2` [Compound 434, 3-(3-Fluoro-phenylamino)-6,7-dimethoxy-4H-indeno[1,2-c]pyrazole-2-carboxylic acid methyl ester], the inhibition at 10 µM (PDGF-R kinase activity) was 86%. The half-inhibitory concentration (IC50) under setting [1] stood at 0.503 µM.

In the case of `COc1cc2c(cc1OC)-c1n[nH]c(Nc3ccc(Cl)cc3Cl)c1C2` [Compound 17, (2,4-Dichloro-phenyl)-(6,7-dimethoxy-2,4-dihydro-indeno[1,2-c]pyrazol-3-yl)-amine], for the setting “PDGF-R kinase activity”, the inhibition at 10 µM stood at 79%. The 50% inhibitory concentration (IC50) under setting [1] came to 3.54 µM.

Usually inhibition stands for the share of the control response that was lost under treatment. Broadly, the IC50 is the concentration needed to halve the response being measured.
